From publication PMC10892041, “Vanadium Complexes with Thioanilide Derivatives of Amino Acids: Inhibition of Human Phosphatases and Specificity in Various Cell Models of Metabolic Disturbances” (Pharmaceuticals, 2024)

What was measured:
[1] = test system: myocytes C2C12; test: Scintillation proximity assay, transport of [14C]-deoxy-D-glucose into myocytes C2C12; format: cell-based, mouse; conditions: 50 µM; control solvent only
Method: The myocyte C2C12 cell line (ATCC CRL-1772), a subclone of myoblasts from mouse muscles, was cultured according to standard protocol in DMEM supplemented with 10% fetal calf serum, 100 IU/ml penicillin, and […] streptomycin at 37 °C in 5% CO2. Cells were pleated on a 96-well microplate and after reach confluence were differentiated in medium with 2% horse serum. Differentiation medium was changed every 72 h.
(§1) Scintillation proximity assay (SPA) is a method to measure the real-time accumulation of radiolabeled substrates by adherent cells with no filtration needed. Radioactivity concentrated closer to the scintillator embedded in the plastic bottom of each well provides a stronger signal than the radiolabeled substrate in the culture medium. Uptake of radiolabeled 2-deoxy-D-[U-14C]-glucose was conducted based on previous descriptions.
After 24 h incubation, the tested complexes were added. After 2 h incubation at 37 °C in 5% CO2, the medium was changed to low-glucose medium (1000 mg/L), and the tested complexes were added again, with further incubation for 4 h being conducted.
(§2) For cells proceeded as above, 2-deoxy-D-[U-14C]-glucose (250–350 mCi/mmol, NEC720A, PerkinElmer) solution in KRB with a total activity of 0.03 mCi was added to each well. […] Non-specific radioactivity was subtracted from each result (cpm). Two independent experiments with triplicates were conducted.

[2] = test system: adipocytes 3T3-L1; test: Scintillation proximity assay, transport of [14C]-deoxy-D-glucose into adipocytes 3T3-L1; format: cell-based, mouse; conditions: 50 µM
Method: Adipocytes 3T3-L1 cell line (ATCC CRL-11605) derived from fibroblasts from mouse embryo tissue were cultured according to standard protocol in DMEM medium supplemented with 10% bovine calf serum, 100 IU/mL penicillin, and […] streptomycin at 37 °C in 5% CO2. Cells were seeded in 96-well poly-D-lysine-coated plates and cultured to reach confluency.
as §1
Adipocytes were washed and the medium was changed to the basal medium. After 24 h incubation, the tested complexes were added. After 2 h incubation at 37 °C in 5% CO2, the medium was changed to DMEM medium without glucose, with 0.1% BSA free from fatty acid, […] L-glutamine, and […] pyruvate. The tested complexes were added again, and further incubation for 4 h was conducted.
as §2

[3] = target: T1, SHP1 (Homo sapiens, UniProt P29350); test: Inhibition of human recombinant tyrosine phosphatase SHP1 (DiFMUP fluorescence); format: biochemical; conditions: for Inhibition of SHP1, percentage of inhibition of the control: 1 µM, control solvent only, SD did not exceed 6%; for Log IC50 ± SD SHP1: logarithm of IC50
T1 construct: purchased Sigma-Aldrich
T1 sequence (P29350 whole entry): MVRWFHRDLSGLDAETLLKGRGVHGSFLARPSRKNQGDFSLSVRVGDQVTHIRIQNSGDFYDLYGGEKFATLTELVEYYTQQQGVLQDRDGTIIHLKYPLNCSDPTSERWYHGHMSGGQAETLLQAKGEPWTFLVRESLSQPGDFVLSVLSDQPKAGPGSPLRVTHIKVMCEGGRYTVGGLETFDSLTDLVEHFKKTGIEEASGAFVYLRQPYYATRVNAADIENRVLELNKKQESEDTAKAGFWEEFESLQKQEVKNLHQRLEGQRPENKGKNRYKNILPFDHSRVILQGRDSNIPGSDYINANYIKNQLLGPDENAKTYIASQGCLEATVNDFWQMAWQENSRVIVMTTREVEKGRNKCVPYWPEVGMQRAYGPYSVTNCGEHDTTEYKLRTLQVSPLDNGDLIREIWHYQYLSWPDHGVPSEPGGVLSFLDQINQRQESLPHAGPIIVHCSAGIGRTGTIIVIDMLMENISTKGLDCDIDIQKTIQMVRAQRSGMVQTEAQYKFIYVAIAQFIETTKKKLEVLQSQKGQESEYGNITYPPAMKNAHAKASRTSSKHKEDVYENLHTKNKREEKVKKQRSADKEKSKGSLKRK
In short: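 Human recombinant phosphatases (SHP1 400 ng/mL, SHP2 50 ng/mL, LAR 5 ng/mL final) were pre-incubated 10 min with compound in 25 mM MOPS pH 7.0, 50 mM NaCl, 1 mM DTT, 0.05% Tween-20. DiFMUP (0.1 mM final) was added for 20 min at 23 °C and fluorescence read at 355/560 nm. Screening used 1 µM compound (% inhibition vs vehicle); IC50 also reported.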

[4] = target: T2, CDC25A (Homo sapiens, UniProt P30304); test: Inhibition of human recombinant non-tyrosine phosphatase CDC25A (3-O-methylfluorescein phosphate); format: biochemical
T2 construct: purchased Sigma-Aldrich
T2 sequence (P30304 1-524): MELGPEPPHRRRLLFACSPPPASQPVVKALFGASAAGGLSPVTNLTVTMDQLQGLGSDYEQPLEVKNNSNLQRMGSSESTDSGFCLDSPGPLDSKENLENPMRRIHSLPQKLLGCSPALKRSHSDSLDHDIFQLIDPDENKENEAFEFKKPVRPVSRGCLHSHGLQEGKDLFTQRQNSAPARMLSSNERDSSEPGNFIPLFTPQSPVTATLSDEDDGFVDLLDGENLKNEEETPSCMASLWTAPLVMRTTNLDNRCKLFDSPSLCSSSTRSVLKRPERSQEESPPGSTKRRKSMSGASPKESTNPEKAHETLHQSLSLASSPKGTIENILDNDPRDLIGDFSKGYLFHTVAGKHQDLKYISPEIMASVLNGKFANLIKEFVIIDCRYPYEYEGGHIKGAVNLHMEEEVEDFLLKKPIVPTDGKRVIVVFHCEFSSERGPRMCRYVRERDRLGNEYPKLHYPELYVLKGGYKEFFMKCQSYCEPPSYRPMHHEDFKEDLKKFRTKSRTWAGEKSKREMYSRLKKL
In short: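 Compound pre-incubated 10 min with enzyme: PP2A at 0.5 U/mL in 50 mM Tris-HCl pH 7.0, 0.05% Tween-20, 125 µg/mL BSA with 0.1 mM DiFMUP; CDC25A at 400 ng/mL with 0.2 mM 3-O-methylfluorescein phosphate. Incubation 180 min at 23 °C; fluorescence (ex 355/em 560 nm) read, percent inhibition versus vehicle control, triplicate.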

Question: `Cc1occc(=O)c1[O-].Cc1occc(=O)c1[O-].[O]=[V+2]` [BMOV, bis(maltolato)oxidovanadium(IV), reference compound] was tested. Which “Transport of [14C]-deoxy-D-glucose into C2C12 myocytes, % of the control” value [1] did it give?
Answer: 125 % of control

Question: And the “Transport of [14C]-deoxy-D-glucose into 3T3-L1 adipocytes, % of control” value [2]?
Answer: low activity

Question: What about the IC50 [3] of the same compound?
Answer: 0.014 µM

Question: What about the “Inhibition of SHP1, percentage of inhibition of the control” value [3] of the same compound?
Answer: 76%

Question: And the “Log IC50 ± SD SHP1” value [3]?
Answer: −7.86 ± 0.03

Question: And the “Inhibition of CDC25A, percentage inhibition of control ± SD” value ([4]; 1 µM)?
Answer: 54 ± 1%

Question: What about the “Inhibition of CDC25A, percentage inhibition of control ± SD” value ([4]; 10 µM) of the same compound?
Answer: 61 ± 1%

Question: For `O=S(=O)([O-])[O-].[O]=[V+2]` [VOSO4, reference compound], which “Transport of [14C]-deoxy-D-glucose into C2C12 myocytes, % of the control” value [1] is on record?
Answer: 110 % of control

Question: What about the “Transport of [14C]-deoxy-D-glucose into 3T3-L1 adipocytes, % of control” value [2] of the same compound?
Answer: low activity

Question: And the IC50 [3]?
Answer: 0.017 µM

Question: What about the “Inhibition of SHP1, percentage of inhibition of the control” value [3] of the same compound?
Answer: 70%

Question: What about the “Log IC50 ± SD SHP1” value [3] of the same compound?
Answer: −7.77 ± 0.02

Question: And the “Inhibition of CDC25A, percentage inhibition of control ± SD” value ([4]; 1 µM)?
Answer: 54 ± 2%

Question: And the “Inhibition of CDC25A, percentage inhibition of control ± SD” value ([4]; 10 µM)?
Answer: 62 ± 1%
